The subject of assay [1] is keratinocytes (HaCat line). As to the kind of experiment: Proliferation of keratinocytes (HaCat line) in medium deficient in growth factors; Cyquant, Nile red and XTT probes. It counts as cell-based. As to the method:
The keratinocytes (HaCat line) are cultured under two conditions: whole defined culture medium (standard condition) and culture medium deficient in growth factors. This deficient medium gives rise to a controlled delay in cell proliferation. Under these conditions, it is then possible to measure the effects of compounds capable of compensating for the deficiency in growth factors of the culture medium and thus of relaunching the cell multiplication and/or of stimulating cell metabolism.
The keratinocyte proliferation is measured by means of three markers on the same cell population: the level of DNA, which is proportional to the number of cells (Cyquant probe), the level of constituent polar lipids of cell membranes (Nile red probe) and the mitochondrial respiration, which reflects the general cell metabolism (XTT probe).
(Tetrazolium dyes change colour on reduction, which living cells bring about.)

The test system of assay [2] is dermal fibroblasts of the reconstructed skin. Description: Proliferation of fibroblasts in whole reconstructed skin (propidium iodide count on frozen sections). It counts as cell-based, human. The settings on record: 5 mM rhamnose; within 48 hours of treatment. The source says:
Rhamnose was studied on a model of whole reconstructed skin in order to measure its anti-ageing efficacy on the dermal compartment.
Briefly, the model of reconstructed skin used is that described by Bell et al. (Bell E. et al., The reconstitution of living skin, J. Invest. Dermatol., 1983, July; 81): it includes a dermal equivalent on which is reconstructed a multistratified epidermis; the dermal equivalent is manufactured from acid-soluble collagen, culture medium containing serum and normal adult human fibroblasts. After 5 days of shrinkage, this equivalent is inoculated with keratinocytes and then cultured for 6 days in immersion and for 7 days in emersion in order to obtain a multistratified and differentiated epidermis having a horny layer.
The reconstructed skin is treated with 5 mM rhamnose for 2 days and 5 days in the culture medium; after the treatment, the reconstructed skins are included in Tissue Tek in order to produce frozen sections 7 μm thick with a cryostat. […] Three frozen sections are prepared at random on each reconstructed skin; on each section, two microscopic fields (25× objective lens) are analysed by fluorescence microscopy and photographed. The dermal fibroblasts are thus counted for each reconstructed skin on six images in total representing the six microscopic fields considered. […]

A further assay deals with type I procollagen. Description: Synthesis of procollagen 1 in reconstructed skin (indirect immunofluorescence). The format is cell-based, human. As to the method: Conventional detection via indirect immunofluorescence of type I procollagen in the dermis of the reconstructed skin was also performed on other series of frozen sections (anti-procoll 1 antibody (MAB 1912 Millipore)+FTIC-coupled conjugate (112-095-068 Jackson Immunoresearch)). In order to obtain bearings within the cutaneous architecture during the microscopic examination of the sections, the cell nuclei of the keratinocytes and fibroblasts are localized by staining them with propidium iodide, as described above. Three frozen sections are prepared at random on each reconstructed skin and on each section, and two microscopic fields (25× objective lens) are analysed is by fluorescence microscopy and photographed. The levels of fluorescence proportional to the amount of type I procollagen are compared between the control skin and the skin treated with rhamnose.

Structures are written as SMILES.

In the case of `C[C@H](O)[C@H](O)[C@@H](O)[C@@H](O)C=O` [rhamnose], the “number of cells compared with an untreated control” value in assay [1] (keratinocytes cultured in medium depleted in growth factor) was “higher number of cells”. The keratinocyte proliferation entry in assay [1] (keratinocytes cultured in medium depleted in growth factors) is given as “activate keratinocyte proliferation”. Besides, in assay [2], the “growth of the dermal fibroblasts of the reconstructed skin” value is listed as “stimulation of growth”. Moreover, the “synthesis of type I procollagen by the fibroblasts” value with type I procollagen (1 mM rhamnose for 120 hours, reconstructed skin) was “greatly stimulated”. In addition, the “green fluorescence (proportional to amount of type I procollagen) compared with control skin” value in the assay with type I procollagen (1 mM rhamnose for 120 hours, reconstructed skin section) is recorded as “marked increase”. In addition, the “procollagen 1 synthesis” value with type I procollagen (1 mM, reconstructed skin) was “stimulation of procollagen 1 synthesis”; with type I procollagen (5 mM, reconstructed skin) it was “stimulation of procollagen 1 synthesis”.

Source of the values: patent US20100166897A1, “COMBINATION OF MONOSACCHARIDES WITH ANTIOXIDANTS AND USE THEREOF” (L'OREAL, priority 2008, published 2010).
